The values that follow come from patent US8716252B2, “(Methylsulfonyl) ethyl benzene isoindoline derivatives and their pharmaceutical uses” (Celgene Corporation, priority 2009, dated 2014).

The compound `CCOc1cc([C@@H](CS(C)(=O)=O)N2Cc3cccc(N)c3C2=O)ccc1OC` [Example 5.5, 7-amino-2-[(1S)-1-(3-ethoxy-4-methoxy-phenyl)-2-methanesulfonyl-ethyl]-2,3-dihydro-isoindol-1-one] displayed a melting point of 135 to 137 °C.

In general, melting point refers to the temperature, or range, at which the solid turns liquid.
